The values that follow come from ChEMBL document CHEMBL4052780, “Novel 1,2-dihydroquinazolin-2-ones: Design, synthesis, and biological evaluation against Trypanosoma brucei” (Bioorg Med Chem Lett, 2017).

≈ marks a conversion by molar mass, not a printed value.

A short description of data set [1]: Cytotoxicity against human MRC5 SV2 cells after 48 hrs by resazurin based fluorescence assay. Format: cell-based. To be noted: MRC-5 SV2, 48 h.
Data set [2] deals with Trypanosoma brucei brucei. In words: Antitrypanosomal activity against bloodstream form of Trypanosoma brucei brucei Lister 427 after 72 hrs by resazurin based fluorescence assay. To be noted: Lister 427, 72 h. Format: functional.
For the next data set, the system named is THP-1. Put plainly: Cytotoxicity against human THP1 cells assessed as reduction in cell viability after 72 hrs by MTT assay. Type of data set: cell-based. To be noted: THP-1, 72 h. (Tetrazolium dyes change colour on reduction, which living cells bring about.)
The test system of the next data set is Trypanosoma cruzi. In words: Antitrypanosomal activity against Trypanosoma cruzi Tulahuen C4 amastigotes infected in rat L6 cells after 96 hrs by beta-galactosidase reporter gene assay. To be noted: Tulahuen C4, L6, 96 h. Type of data set: functional, cell-based. For orientation: Reporter assays use an easily measured gene product as a stand-in for the process of interest.

The next data set relates to L6. Put plainly: Cytotoxicity against rat L6 cells assessed as reduction in cell viability after 72 hrs by resazurin based fluorescence assay. To be noted: L6, 72 h. (In general: Resazurin is reduced to fluorescent resorufin, in cell work by metabolically active cells.)
A short description of data set [3]: Kinetic aqueous solubility of the compound by CLND method. Type of data set: physicochemical. The note with it: read-out: Kinetic_solubility.
For the next data set, the system named is Leishmania donovani. Put plainly: Antileishmanial activity against intracellular […] stage of Leishmania donovani MHOM/ET/67/HU3 infected in human THP1 cells measured after 72 hrs by luciferase reporter gene assay. Format: functional, cell-based. The note with it: MHOM/ET/67/HU3, THP-1, 72 h.
The nature of data set [4]: Lipophilicity, log D of the compound at pH 7.4. Format: physicochemical. The note with it: buffer.
For the next data set, the system named is Liver. Put plainly: Intrinsic clearance in human liver microsomes. Type of data set: ADME, microsome.
The nature of data set [5]: Intrinsic clearance in rat hepatocytes assessed per million cells. Format: ADME, cell-based, Hepatocyte.
In data set [6] the test system is Trypanosoma brucei brucei. Put plainly: Antitrypanosomal activity against bloodstream form of Trypanosoma brucei brucei Lister 427 after 70 hrs by resazurin based fluorescence assay. Type of data set: functional. The note with it: Lister 427, 70 h.

Usually EC50 stands for the midpoint of the concentration-response curve. With `O=c1nc(-c2ccccc2)c2cc(N3CCOCC3)ccc2[nH]1`, the EC50 in data set [1] was above 50 µM; in data set [2], 14.1 µM; in the data set with THP-1 it was above 50 µM; in the data set on Trypanosoma cruzi it was above 20 µM; in the data set on L6, above 50 µM; in the data set on Leishmania donovani, above 5 µM. Also, the solubility kinetic in data set [3] is 324 µM (≈ 99.6 µg/mL).
Regarding `O=c1nc(C2CCCCC2)c2cc(-c3cc[nH]n3)ccc2[nH]1`, the EC50 was above 50 µM in data set [1]; 5.76 µM in data set [2]; above 50 µM in the data set with THP-1; 20 µM in the data set on Trypanosoma cruzi; above 50 µM in the data set with L6; above 5 µM in the data set on Leishmania donovani. Moreover, the solubility kinetic in data set [3] was 5 µM (≈ 1.47 µg/mL).
For orientation: logD means the decadic logarithm of the distribution of all forms, ionised or not, between an organic phase and buffer at a given pH. Low readings indicate lower lipophilicity, high ones higher lipophilicity. With `O=c1nc(-c2ccccc2)c2cc(-c3cc[nH]n3)ccc2[nH]1`, the logD in data set [4] is recorded as 2.2. Besides, the EC50 in [1] is above 50 µM; in data set [2] it was 1.04 µM; in the data set with THP-1 it was above 50 µM; in the data set on Trypanosoma cruzi it was 13.3 µM; with L6, above 50 µM; with Leishmania donovani, above 5 µM. Further, the CLH is 19 µL/min/mg in the data set on Liver and below 1 µL/min in data set [5]. For the same compound, the solubility kinetic in data set [3] was found to be 8 µM (≈ 2.31 µg/mL).
With `Cc1ccccc1-c1nc(=O)[nH]c2ccc(-c3cc[nH]n3)cc12`, the EC50 in [1] is above 50 µM; in data set [2], 3.14 µM; with THP-1, above 50 µM; with Trypanosoma cruzi, 5.28 µM; with L6, above 50 µM; in the data set with Leishmania donovani it was above 5 µM. The solubility kinetic in [3] turned out to be 13 µM (≈ 3.93 µg/mL).
Consider `O=c1nc(-c2ccccc2)c2cc(-c3ccncc3)ccc2[nH]1`, for which the EC50 is above 50 µM in [1]; 1.89 µM in data set [2]; 10.9 µM in the data set on Trypanosoma cruzi; 0.84 µM in data set [6]; above 50 µM in the data set on L6; above 5 µM in the data set on Leishmania donovani.
Regarding `O=c1nc(C2CCC2)c2cc(-c3cc[nH]n3)ccc2[nH]1`, in data set [4], the logD came to 2.3. The EC50 in [1] was above 50 µM; in data set [2], 5.95 µM; with THP-1, above 50 µM; in the data set with Trypanosoma cruzi, 16.9 µM; with L6, above 50 µM; in the data set with Leishmania donovani it was above 5 µM. In data set [3], the solubility kinetic was found to be 74 µM (≈ 19.7 µg/mL).
